One data set has as its system HEK293T cells. The experiment in a line: CellTiter-Glo cytotoxicity assay in HEK293T cells. It is filed as cell-based, human. Particulars: 24 h, 25 μM and 8.3 μM. The protocol: (§1) Cytotoxicity induced by the compounds in HEK293T cells and primary human calvarial osteoblasts (HCO) (ScienCell Research Laboratories, San Diego, CA) were tested using the […]-GLO™ Luminescent Cell Viability Assay (Promega, Madison, WI). This is a luminescence-based assay that determines viable cells by measuring cellular adenosine triphosphate (ATP) production. The luciferase enzyme requires ATP to catalyze the conversion of beetle luciferin to oxyluciferin and light. Thus, luciferase activity is proportional to ATP accumulation in the cells. For this assay, 96-well flat-bottom opaque plates seeded with HEK293T cells at 5,000 cells/well and HCO cells at 3,000 cells/well in 100 μL/well of growth medium (DMEM, 10% FBS, 1× Penicillin/Streptomycin). After incubating overnight at 37° C., 5% CO2 to allow attachment, cells were treated with 1 μL/well of compound (25-0.1 μM) or DMSO vehicle and incubated an additional 24 hours. Then cells were equilibrated for 30 minutes at room temperature and 100 μL/well of […]-GLO™ Reagent was added. Plates were placed on an orbital shaker for 2 minutes and incubated at room temperature for 10 minutes to stabilize the luminescent signal, which was read immediately after on a CLARIOstar plate reader (BMG Labtech, Germany). […] The HEK293T results represent the means±SEM of 3 technical replicates. The HCO results represent the means±SEM of 3 independent experiments.
For orientation: In ATP-based viability assays light output follows the ATP content of the culture.

Data set [1] deals with T1, RXFP2 (Homo sapiens, UniProt Q8WXD0).
T1 construct: expressed in transfected cells
T1 sequence (Q8WXD0 whole entry): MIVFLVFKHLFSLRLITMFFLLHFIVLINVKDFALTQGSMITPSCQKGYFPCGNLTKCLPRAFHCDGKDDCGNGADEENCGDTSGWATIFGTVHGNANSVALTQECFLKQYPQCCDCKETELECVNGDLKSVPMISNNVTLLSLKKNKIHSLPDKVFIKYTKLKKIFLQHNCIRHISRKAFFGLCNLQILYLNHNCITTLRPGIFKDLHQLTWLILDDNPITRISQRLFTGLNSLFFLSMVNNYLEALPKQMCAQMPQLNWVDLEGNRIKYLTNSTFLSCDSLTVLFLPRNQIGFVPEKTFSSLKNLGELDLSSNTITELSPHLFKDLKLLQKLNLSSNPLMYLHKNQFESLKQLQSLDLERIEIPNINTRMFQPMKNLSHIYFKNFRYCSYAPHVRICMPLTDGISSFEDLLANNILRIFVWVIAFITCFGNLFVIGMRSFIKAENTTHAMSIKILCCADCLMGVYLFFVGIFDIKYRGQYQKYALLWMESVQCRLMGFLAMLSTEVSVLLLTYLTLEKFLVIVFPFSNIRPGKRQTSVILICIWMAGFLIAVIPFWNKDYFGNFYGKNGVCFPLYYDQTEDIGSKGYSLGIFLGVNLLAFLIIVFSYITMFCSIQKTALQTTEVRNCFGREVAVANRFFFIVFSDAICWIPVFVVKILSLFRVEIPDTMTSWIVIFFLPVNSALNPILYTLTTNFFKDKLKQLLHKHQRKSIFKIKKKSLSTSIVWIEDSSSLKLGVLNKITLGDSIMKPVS
Description: HTRF cAMP assay in HEK293T cells stably expressing RXFP2 (HEK-RXFP2). It is filed as cell-based. The essentials:
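HEK-RXFP2 cells in serum-free DMEM were treated with compound up to 25 μM for 1 h at 37°C, and cAMP was read by HTRF immunoassay. Condition (a): 20,000 cells/well, 200 μM IBMX, normalized to 1 nM INSL3. Condition (b): 10,000 cells/well, 1 nM INSL3. Condition (c): 7,500 cells/well, no IBMX, 100 nM INSL3.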
On the technique in general: In TR-FRET formats the signal depends on donor and acceptor labels being close together.

Data set [2] deals with primary human calvarial osteoblasts (HCO). Description: CellTiter-Glo cytotoxicity assay in HCO cells. It is filed as cell-based. Particulars: 24 h. How it is done: as §1
For data set [3], the target named is T1, RXFP2. The experiment in a line: Luciferase cAMP assay in HEK-CRE-Luc-RXFP2 cells. It is filed as cell-based. How it is done: A confirmatory cAMP assay was done to eliminate false positives using a HEK293T-CRE-Luc cell line stably transfected with RXFP2 (HEK-CRE-Luc-RXFP2), as this cell line expresses luciferase under the control of the cAMP response element (CRE). Activation of the RXFP2 receptor increases intracellular cAMP levels, inducing luciferase transcription in the nucleus. Thus, luciferase activity in these cells is proportional to cAMP accumulation. For this assay, cells were seeded in 96-well flat-bottom opaque plates at 20,000 cells/well in 60 μL/well of serum-free DMEM medium and allowed to attach overnight at 37° C., 5% CO2. The next morning, cells were treated with 1 μL/well of compound (25 μM-0.21 nM), 1 μM forskolin, or DMSO vehicle. Cells were also treated with 4 μL of INSL3 (100-0.01 nM) (Phoenix Pharmaceuticals, Burlingame, CA) or vehicle serum-free DMEM. Cells were incubated with the treatments for 3 hours at 37° C., 5% CO2, then rested 30 minutes at room temperature for equilibration, after which 65 μL/well of substrate AMPLITE™ Luciferase Reporter Gene Assay Kit (AAT Bioquest, Sunnyvale, CA) was added. Plates were incubated for 40 minutes at room temperature protected from light, and then luciferase output was read on a CLARIOstar plate reader (BMG Labtech, Germany). […]

In data set [4] the test system is chimera RXFP1-2 (extracellular domain of RXFP1, transmembrane domain of RXFP2). The experiment in a line: HTRF cAMP assay in HEK293T cells transiently transfected with chimera RXFP1-2. It is filed as cell-based, human. An excerpt:
(§2) To further investigate the involvement of the RXFP2 extracellular and transmembrane domains in agonist activation of the receptor, two complementary chimeras were created using the RXFP1 receptor, which is not activated by the agonists of formula (I), to transiently transfect HEK293T cells and measured changes in cAMP induction using the HTRF assay.
(§3) Chimeric receptors were generated by IN-FUSION™ (Takara Bio USA, Inc., San Jose, CA) mutagenesis using full-length human RXFP1 and RXFP2 receptor constructs. Polymerase chain reaction (PCR) was performed using PfuTurbo high-fidelity DNA polymerase (Agilent Technologies, Santa Clara, CA) and overlapping primers with at least 15 bp sequence homology within the fusion site. PCR products were digested with Dpnl restricton enzyme at 37° C. overnight, run on a 0.8% agarose gel and purified using the GENEJET™ Gel extraction kit (Thermo Scientific, Waltham, MA). The purified DNA fragments were then ligated into the BamHI and XhoI pre-digested pcDNA3.1™/Zeo(+) AmpR mammalian expression vector using the In-Fusion HD enzyme premix (Clontech, Mountain View, CA) at 50° C. for 15 minutes, and the resulting product was used to transform Stellar competent cells (Takara Bio USA, Inc., San Jose, CA). The clones were fully sequenced to confirm the correct fusion of both receptor fragments. Chimera RXFP2-1 contained the extracellular domain of RXFP2 and the transmembrane domain of RXFP1. Accordingly, chimera RXFP1-2 contained the extracellular domain of RXFP1 and the transmembrane domain of RXFP2.
(§4) HEK293T cells were seeded in 6-well flat-bottom clear plates at 0.5 million cells/well in 2 mL/well of growth medium (DMEM, 10% FBS, 1× Pen/Strep) and allowed to attach overnight at 37° C. and 5% CO2. The next morning, cells were transfected with 2 μg of plasmid (chimeric receptors, WT RXFP2, or WT RXFP1) and 6 μl of Lipofectamine2000 (Invitrogen, Waltham, MA) in a total volume of 200 μl/well OPTI-MEM™ I (Thermo Fisher, Waltham, MA) reduced serum medium and allowed to incubate an additional 24 hours. The next day, transfected cells were seeded in 96-well flat-bottom opaque plates at 30,000 cells/well in 60 μL/well of serum-free DMEM medium and allowed to attach overnight at 37° C. at 5% CO2. The next morning, cells were treated with 1 μL/well of compound (25 μM-0.25 nM), 2 μM forskolin, or DMSO vehicle. Cells were also treated with 4 μL of positive control INSL3 (100-0.01 nM), Relaxin2 (100-10 nM), or vehicle (serum-free DMEM+IBMX). Plates were incubated for 1 hour at 37° C. and 5% CO2, after which kit cAMP-d2 and anti-cAMP antibody were added as previously described. Cells were incubated for 1 hour at room temperature, and then the signal was read on a CLARIOstar plate reader (BMG Labtech, Germany).

Data set [5] relates to chimera RXFP2-1 (extracellular domain of RXFP2, transmembrane domain of RXFP1). The experiment in a line: HTRF cAMP assay in HEK293T cells transiently transfected with chimera RXFP2-1. It is filed as cell-based, human.
Text: as §2, §3, §4

A further data set deals with T2, WT RXFP2 (Homo sapiens, UniProt Q8WXD0).
T2 construct: using full-length human RXFP1 and RXFP2 receptor constructs; FLAG; expressed in transfected cells; host or cells: HEK293T (transient, Lipofectamine2000)
T2 sequence (Q8WXD0 whole entry): as above
The experiment in a line: HTRF cAMP assay in HEK293T cells transiently transfected with WT RXFP2. It is filed as cell-based.
Text: as §2, §3, §4

We go through two molecules from US20250134907A1, “FUSED DIAZEPINES AS AGONISTS OF THE INSULIN-LIKE 3 (INSL3) PEPTIDE RECEPTOR RXFP2 AND METHODS OF USE THEREOF” (The United States of America,as represented by the …, priority 2022, published 2025).

Bridges are numbered along the chain shown (N, C = ends). Roman numbers before positions name the chains, in order. Where no end group is shown, it is not given here.

As to `Cc1cc(-c2ccc3c(c2)C(=O)N2CCN(C(=O)COc4ccc(OC(F)(F)F)cc4Br)C[C@H]2C(=O)N3)cc(C(F)(F)F)c1` [Example 153, (S)-2-(2-(2-bromo-4-(trifluoromethoxy)phenoxy)acetyl)-8-(3-methyl-5-(trifluoromethyl)phenyl)-1,3,4,12a-tetrahydrobenzo[e]pyrazino[1,2-a][1,4]diazepine-6,12 (2H, 11H)-dione], the cytotoxicity entry in the data set on HEK293T cells is “some toxicity”; in data set [2] (25 μM), “minimal toxicity”; in data set [2] (lower concentrations than 25 μM) it was “not toxic”. Further, the EC50 – broadly, the concentration needed to bring the measured effect to its halfway point – is 23.6 to 50.2 nM on RXFP2 [1] (condition (b): 10,000 cells/well, IBMX 200 μM); 101 to 319 nM at RXFP2 [1] (condition (c): 7,500 cells/well, IBMX omitted); 24.6 nM at RXFP2 [3] (3 h treatment, 25 μM-0.21 nM). For the same molecule, at RXFP2 [1] (condition (b): 10,000 cells/well, IBMX 200 μM, normalized to 1 nM INSL3 cAMP response), the “% EFF vs. 1 nM INSL3 (b)” value is 149.80-150.94%. Also, the “% EFF vs. 100 nM INSL3 (c)” value on RXFP2 [1] (condition (c): 7,500 cells/well, IBMX omitted, normalized to 100 nM INSL3 cAMP response) is 45.16-86.79%. For the same molecule, the “Emax (% Eff vs. 10 nM INSL3)” value on RXFP2 [3] (relative to 10 nM INSL3 response) is recorded as 109.6%.

As to “I: PTPEMREKLCGHHFVRALVRVCGGPRWSTEA / II: AAATNPARYCCLSGCTQQDLLTLCPY (disulfide I:10-II:11, I:22-II:24, II:10-II:15) [INSL3]”, the “cAMP response of chimera RXFP1-2” value in data set [4] is “did not respond”. The “cAMP response of chimera RXFP2-1” value in data set [5] is recorded as “levels comparable to WT RXFP2”. Moreover, the Emax (usually the greatest response seen or fitted, relative to the assay's reference) in data set [5] (RXFP2-1 chimera, normalized to 2 μM forskolin cAMP response as 100% activity) amounted to 92.30 ± 21.82%; at WT RXFP2 (HEK-293T, normalized to 2 μM forskolin cAMP response as 100% activity), 78.4 ± 11.2%. The EC50 came to 0.00074 ± 0.00061 µM in data set [5] (RXFP2-1 chimera, read-out: EC50 (μM or nM)) and 0.0005 ± 0.00035 µM at WT RXFP2 (read-out: EC50 (μM or nM)).
